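Method: 48-hour compound exposure of cells in 96-well plates, five concentrations, linear interpolation of endpoints. The concentration for 50% growth inhibition is given as GI50.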 Active and inactive are the calls of the source. No stated cut-off is given here; in the data, active = GI50 up to about 1.1 µM and inactive = higher.
What was measured:
Experiment in all cases: inhibition of tumour cell growth, NCI panel, 48 h
[1] = tested on: ACHN
[2] = tested on: EKVX
[3] = tested on: HCT-15
[4] = tested on: HL-60
[5] = tested on: HOP-92
[6] = tested on: IGROV-1
[7] = tested on: MOLT-4
[8] = tested on: Malme-3M
[9] = tested on: NCI-H460
[10] = tested on: OVCAR-4
[11] = tested on: RXF 393
[12] = tested on: SK-MEL-28
[13] = tested on: SK-OV-3
[14] = tested on: SR
[15] = tested on: TK-10
[16] = tested on: UO-31
[17] = tested on: MDA-MB-231
[18] = tested on: MDA-MB-435
[19] = tested on: SK-MEL-2
[20] = tested on: Hs-578T

Compound	GI50 [1]	GI50 [2]	GI50 [3]	GI50 [4]	GI50 [5]	GI50 [6]	GI50 [7]	GI50 [8]	GI50 [9]	GI50 [10]	GI50 [11]	GI50 [12]	GI50 [13]	GI50 [14]	GI50 [15]	GI50 [16]	GI50 [17]	GI50 [18]	GI50 [19]	GI50 [20]
CC1CN1P1(N2CC2C)=NP(N2CC2C)(N2CC2C)=NP(N2CC2C)(N2CC2C)=N1 (configuration not stated)	> 50 µM (inactive)	> 50 µM (inactive)	> 50 µM	> 50 µM (inactive)	> 50 µM (inactive)	> 50 µM (inactive)	> 50 µM (inactive)	> 50 µM (inactive)	> 50 µM (inactive)	> 50 µM (inactive)	> 50 µM (inactive)	> 50 µM (inactive)	> 50 µM (inactive)	> 50 µM (inactive)	> 50 µM (inactive)	> 50 µM (inactive)	–	–	–	–
COc1cc2c3c(c1OCc1ccccc1)NCCC3NCC2 (configuration not stated)	–	> 100 µM (inactive)	> 100 µM	> 100 µM (inactive)	86.1 µM (inactive)	> 100 µM (inactive)	> 100 µM (inactive)	> 100 µM (inactive)	> 100 µM (inactive)	> 100 µM (inactive)	98.2 µM (inactive)	–	–	> 100 µM (inactive)	> 100 µM (inactive)	51.6 µM (inactive)	–	–	–	–
CC(=O)OC1CCN(C(=O)c2ccccc2)CC1CC1(c2cc3ccccc3[nH]2)OCCO1 (configuration not stated)	> 100 µM (inactive)	83 µM (inactive)	48.3 µM	24.2 µM (inactive)	48.9 µM (inactive)	61.2 µM (inactive)	32.2 µM (inactive)	> 100 µM (inactive)	–	77.3 µM (inactive)	> 100 µM (inactive)	> 100 µM (inactive)	> 100 µM (inactive)	–	53.2 µM (inactive)	29 µM (inactive)	> 100 µM (inactive)	42.8 µM (inactive)	> 100 µM (inactive)	–
CC(=O)c1cccc(Nc2nc3ccccc3c3[nH]c4ccccc4c23)c1	3.63 µM (inactive)	3.05 µM (inactive)	3.94 µM	–	2.87 µM (inactive)	2.88 µM (inactive)	–	3.61 µM (inactive)	1.7 µM (inactive)	–	–	–	5.42 µM (inactive)	–	7.55 µM (inactive)	3.33 µM (inactive)	3.19 µM (inactive)	4.48 µM (inactive)	3.75 µM (inactive)	10.9 µM (inactive)
CN(C)c1nc(N(C)C)nc(N(C)CN(C)c2nc(N(C)C)nc(N(C)C)n2)n1	> 100 µM (inactive)	> 100 µM (inactive)	> 100 µM	> 100 µM (inactive)	> 100 µM (inactive)	> 100 µM (inactive)	> 100 µM (inactive)	> 100 µM (inactive)	> 100 µM (inactive)	> 100 µM (inactive)	> 100 µM (inactive)	> 100 µM (inactive)	> 100 µM (inactive)	> 100 µM (inactive)	> 100 µM (inactive)	> 100 µM (inactive)	–	–	> 100 µM (inactive)	–
Cc1c2ccncc2c(C)c2c1[nH]c1ccc(Oc3ccccc3)cc12	3.11 µM (inactive)	5.82 µM (inactive)	1.44 µM	1.85 µM (inactive)	6.05 µM (inactive)	4.13 µM (inactive)	2.15 µM (inactive)	1.79 µM (inactive)	1.95 µM (inactive)	2.62 µM (inactive)	1.86 µM (inactive)	3.09 µM (inactive)	6.46 µM (inactive)	2.85 µM (inactive)	8.18 µM (inactive)	11 µM (inactive)	–	–	1.66 µM (inactive)	–
O=C(c1cccc2ccccc12)C1(Br)S(=O)(=O)OCCOS1(=O)=O	> 100 µM (inactive)	> 100 µM (inactive)	> 100 µM	> 100 µM (inactive)	> 10 µM (inactive)	–	> 100 µM (inactive)	> 100 µM (inactive)	> 100 µM (inactive)	> 100 µM (inactive)	–	> 100 µM (inactive)	–	> 100 µM (inactive)	> 100 µM (inactive)	> 100 µM (inactive)	> 100 µM (inactive)	> 100 µM (inactive)	> 100 µM (inactive)	–
Cc1c(O)c(=O)ccn1CCO	> 100 µM (inactive)	> 100 µM (inactive)	> 100 µM	> 100 µM (inactive)	> 100 µM (inactive)	–	> 100 µM (inactive)	> 100 µM (inactive)	> 100 µM (inactive)	> 100 µM (inactive)	> 100 µM (inactive)	> 100 µM (inactive)	> 100 µM (inactive)	> 100 µM (inactive)	> 100 µM (inactive)	> 100 µM (inactive)	–	–	> 100 µM (inactive)	–
CN1CCN(C)C12C=CC=CC21CC1	> 100 µM (inactive)	> 100 µM (inactive)	> 100 µM	> 100 µM (inactive)	58.9 µM (inactive)	> 100 µM (inactive)	> 100 µM (inactive)	> 100 µM (inactive)	> 100 µM (inactive)	> 100 µM (inactive)	> 100 µM (inactive)	–	> 100 µM (inactive)	> 100 µM (inactive)	> 100 µM (inactive)	> 100 µM (inactive)	–	–	> 100 µM (inactive)	–

From ChEMBL document CHEMBL1201862, “PubChem BioAssay data set” (2004)
